Experimental data: patent US20110173718A1, “HERBICIDE TOLERANT PLANTS” (SYNGENTA CROP PROTECTION, INC., priority 2008, published 2011)
“And” between values parts separate entries of the source, which are not always exact repeats. Equal entries are not always repeated.

Assays:
Type in all cases: in vivo
[1] = tested on: Chlamydomonas HST T0 tobacco lines; experiment: Glasshouse spray test, Chlamydomonas HST transgenic tobacco; set-up: herbicidal damage score: scale not given here; settings: Chlamydomonas HST T0 tobacco events (one value per event), 15 g/ha of mesotrione, 21 DAT
From the text: In just the same way the Chlamydomonas HST gene sequence (AM285678) is codon-optimised for tobacco and cloned behind the double Cauliflower mosaic virus 35S promoter and Tobacco mosaic virus enhancer sequences and in front of a nos gene terminator, cloned into a binary vector and transformed into tobacco to produce a population of T0 plants.

[2] = tested on: Tobacco (var Samsun) plantlets in agar; experiment: HST + HPPD herbicide effects on tobacco seedlings in agar; settings: mesotrione 0.004 ppm, 0.75% v/v DMSO, no haloxydine, agar, 7 DAT
Method: Tobacco (var Samsun) plantlets germinated aseptically in agar made up in 1/3 strength Murashige and Skoog salts medium along with various doses of herbicide. Bleaching damage to emerging plantlets is assessed 7 DAT. The plantlets are kept covered under clear perspex and grown at 18° C. (night) and 24° C. (day) under a 16 h day (˜500-900 umol/m^2), 8 h darkness regime. Herbicide affected plantlets are bleached white and grow less. Synergistic/antagonistic responses are calculated using the Colby formula (Colby, S. R. (Calculating synergistic and antagonistic responses of herbicide Combinations”, Weeds, 15, p. 20-22, 1967).

weeds = experiment: Glasshouse weed control by HST/HPPD (mesotrione) mixtures, pre-emergence; settings: 1 g/ha, N = 3
Method: Weed seeds are planted out in trays containing suitable soil (for example 50% peat, 50% John Innes soil no 3) and grown in the glass house conditions under 24-27° C. day; 18-21° C. night and approximately a 14 h (or longer in UK summer) photoperiod. Humidity is ˜65% and light levels up to 2000 μmol/m^2 at bench level. Trays are sprayed with test chemicals dissolved in water with 0.2-0.25% X-77 surfactant and sprayed from a boom on a suitable track sprayer moving at about 2 mph in a suitable track sprayer (for example a DeVries spray chamber with the nozzle about 2 inches from the plant tops). Spray volume is suitably 500-1000 l/ha. Sprays are carried out both pre-emergence and over small plants at about 7-12 d post-emergence
Plants are assessed 14 DAT and herbicidal damage is scored on a scale from 0 to 100%. The HST inhibitor compound 2.30 (designated compound A in table 16 and 17), haloxydine (compound 1.1) and compound 2.13 (designated compound AE in tables 16 and 17) are sprayed at rates between 0 and 500 g/ha.

With `CS(=O)(=O)c1ccc(C(=O)C2C(=O)CCCC2=O)c([N+](=O)[O-])c1` [Mesotrione, mesotrione, reference compound] the herbicidal damage score [1] was 70 and 55 and 85 and 65 and 80 and 75 and 60 and 100, the “% Injury (bleaching), mesotrione by itself” value [2] was 35% and the “% Damage at 14 DAA, mesotrione alone” value (weeds; ALOMY) was 0%. The “% Damage at 14 DAA, mesotrione alone” value (weeds; AMARE) was 2%, the “% Damage at 14 DAA, mesotrione alone” value (weeds; ECHCG) was 0% and the “% Damage at 14 DAA, mesotrione alone” value (weeds; IPOHE) was 0%. For the same compound, the “% Damage at 14 DAA, mesotrione alone” value (weeds; SETFA) was 0% and the “% Damage at 14 DAA, mesotrione alone” value (weeds; SOLNI) was 17%.
